# Where a SMILES comes first, the peptide text is derived from it. The star is where a group is joined. Fmoc = O=C(OCC1c2ccccc2-c2ccccc21)*
# Key:
# [1] = Antiinflammatory activity in human neutrophils assessed as inhibition of FMLP/CB-induced superoxide anion release; assay type: functional, cell-based; conditions: Neutrophil
# [2] = Antiinflammatory activity in human neutrophils assessed as inhibition of FMLP/CB-induced elastase release at 10 ug/ml; assay type: functional; conditions: Neutrophil
# [3] = Antiinflammatory activity in human neutrophils assessed as inhibition of FMLP/CB-induced superoxide anion release at 10 ug/ml; assay type: functional; conditions: Neutrophil
# [4] = Antiaggregatory activity in human platelets assessed as inhibition of thrombin-induced platelet aggregation by aggregometry; assay type: functional, cell-based
# [5] = Antiaggregatory activity in human platelets assessed as inhibition of collagen-induced platelet aggregation by aggregometry; assay type: functional, cell-based
# [6] = Antiinflammatory activity in human neutrophils assessed as inhibition of FMLP/CB-induced elastase release; assay type: functional, cell-based, Neutrophil; conditions: for IC50: Homo sapiens, Neutrophil
# [7] = test system: A549; assay: Cytotoxicity against human A549 cells by MTT assay; assay type: functional, cell-based
# [8] = test system: HepG2; assay: Cytotoxicity against human HepG2 cells by MTT assay; assay type: functional, cell-based
# [9] = test system: MCF7; assay: Cytotoxicity against human MCF7 cells by MTT assay; assay type: functional, cell-based
# [10] = Antiinflammatory activity in human Neutrophil assessed as inhibition of superoxide anion release at 10 ug/ml; assay type: functional, cell-based
# [11] = Cytotoxicity against human Hep3B cells by MTT assay; assay type: functional, cell-based, Hep 3B2
# [12] = test system: Ca9-22; assay: Cytotoxicity against human Ca9-22 cells by MTT assay; assay type: functional, cell-based
# [13] = Antiinflammatory activity in human Neutrophil assessed as inhibition of elastase release at 10 ug/ml; assay type: functional, cell-based
# [14] = test system: MDA-MB-231; assay: Cytotoxicity against human MDA-MB-231 cells by MTT assay; assay type: functional, cell-based
# [15] = test system: Neutrophil; assay: Ratio of compound IC50 to PMSF IC50 for antiinflammatory activity in human neutrophils assessed as inhibition of FMLP/CB-induced elastase release; assay type: functional
structure (smiles),measurement,setting,value
CCCCCCCCCCCCCCCCCCCC(=O)OCC(O)CO (centres undefined),IC50,[1],2.47 µg/mL
same,inhibition at 10 µg/mL,[2],41.8%
CC(=O)OC[C@]1(C)CCC[C@]2(C)[C@@H]1CC[C@]13C[C@H](CC[C@H]12)[C@@H](C(=O)O)C3,IC50,[1],5.11 µg/mL
same,inhibition at 10 µg/mL,[2],44.7%
C[C@@]1(CO)CCC[C@]2(C)[C@@H]1CC[C@]13C[C@H](CC[C@H]12)[C@@H](C(=O)O)C3,inhibition at 10 µg/mL,[3],31.8%
same,inhibition at 10 µg/mL,[2],15.6%
C[C@H]1O[C@H](Oc2cc(O)c3c(=O)c(O)c(-c4ccc(O)cc4)oc3c2)[C@@H](O)[C@@H](O)[C@@H]1O,IC50,[4],> 50 µg/mL
same,IC50,[5],34.8 µg/mL
Oc1ccc([C@]23Oc4cc(O)cc(O)c4[C@H](c4c(cc(O)c5c4O[C@@H](c4ccc(O)c(O)c4)[C@@H](O)C5)O2)[C@H]3O)cc1,inhibition (INH),[6],2.5%
Oc1cc(O)c2c(c1)O[C@H](c1ccc(O)c(O)c1)[C@H](O)C2 [(-)-EPICATECHIN],IC50,[4],> 50 µg/mL
same,IC50,[5],22.2 µg/mL
CC(=O)Oc1ccccc1C(=O)O [ASPIRIN],IC50,[4],> 50 µg/mL
same,IC50,[5],13.6 µg/mL
C=C(C)[C@@H]1CC[C@]2(C(=O)O)CC[C@]3(C)[C@H](CC[C@@H]4[C@@]5(C)CCC(=O)C(C)(C)[C@@H]5CC[C@]43C)[C@@H]12 [BETUNOLIC ACID],IC50,[7],8.93 µg/mL
same,IC50,[8],4.32 µg/mL
same,IC50,[4],> 50 µg/mL
same,IC50,[9],19.3 µg/mL
same,IC50,[10],16.8 µg/mL
same,IC50,[5],44.7 µg/mL
same,IC50,[11],13.8 µg/mL
same,IC50,[12],14.5 µg/mL
same,IC50,[13],128 µg/mL
same,IC50,[14],> 20 µg/mL
Oc1cc(O)c2c(c1)O[C@H](c1ccc(O)c(O)c1)[C@@H](O)C2 [CIANIDANOL],IC50,[4],> 50 µg/mL
same,IC50,[5],27.6 µg/mL
c1ccc2c(c1)[I+]c1ccccc1-2 [DIPHENYLENEIODONIUM],IC50,[1],0.35 µg/mL
COc1cccc2c1C(=O)c1c(O)c3c(c(O)c1C2=O)C[C@@](O)(C(=O)CO)C[C@@H]3O[C@H]1C[C@H](N)[C@H](O)[C@H](C)O1 [DOXORUBICIN],IC50,[7],0.63 µg/mL
same,IC50,[8],0.23 µg/mL
same,IC50,[11],0.42 µg/mL
same,IC50,[12],14.5 µg/mL
same,IC50,[14],1.32 µg/mL
CC[C@H](C)[C@H](NC(=O)C(NC(=O)[C@H](Cc1ccccc1)N(C)C)C(C(C)C)n1ccc2ccccc21)C(=O)O (some centres undefined) [IXORAPEPTIDE II],IC50,[1],0.21 µg/mL
same,IC50,[6],0.27 µg/mL
same,Ratio IC50,[15],73
COC(=O)[C@H](Cc1ccccc1)NC(=O)[C@@H](NC(=O)OCC1c2ccccc2-c2ccccc21)C(C)C [IXORAPEPTIDE I] (Fmoc-Val-Phe-OMe),IC50,[7],> 20 µg/mL
same,IC50,[8],> 20 µg/mL
same,IC50,[4],20.5 µg/mL
same,IC50,[9],> 20 µg/mL
same,IC50,[5],29.5 µg/mL
same,IC50,[11],3.36 µg/mL
same,IC50,[12],20 µg/mL
same,IC50,[14],> 20 µg/mL
C[C@@H]1O[C@@H](Oc2cc(O)c3c(=O)c(O[C@@H]4O[C@@H](C)[C@H](O)[C@@H](O)[C@H]4O)c(-c4ccc(O)cc4)oc3c2)[C@H](O)[C@H](O)[C@H]1O [KAEMPFERITRIN],inhibition at 10 µg/mL,[3],8.27%
same,inhibition at 10 µg/mL,[2],12.5%
O=c1c(O)c(-c2ccc(O)cc2)oc2cc(O)cc(O)c12 [KAEMPFEROL],IC50,[7],> 20 µg/mL
same,IC50,[8],> 20 µg/mL
same,IC50,[4],> 50 µg/mL
same,IC50,[9],> 20 µg/mL
same,IC50,[5],3.55 µg/mL
same,IC50,[11],17.7 µg/mL
same,IC50,[12],> 20 µg/mL
same,IC50,[14],> 20 µg/mL
C=C(C)[C@@H]1CC[C@]2(C)CC[C@]3(C)[C@H](CC[C@@H]4[C@@]5(C)CC[C@H](O)C(C)(C)[C@@H]5CC[C@]43C)[C@@H]12 [LUPEOL],IC50,[7],> 20 µg/mL
same,IC50,[8],19.8 µg/mL
same,IC50,[9],> 20 µg/mL
same,IC50,[11],18.8 µg/mL
same,IC50,[12],16.8 µg/mL
same,IC50,[14],> 20 µg/mL
O=c1cc(-c2ccc(O)c(O)c2)oc2cc(O)cc(O)c12 [LUTEOLIN],IC50,[7],10.2 µg/mL
same,IC50,[8],7.36 µg/mL
same,IC50,[4],> 50 µg/mL
same,IC50,[9],9.5 µg/mL
same,IC50,[5],2.56 µg/mL
same,IC50,[11],8.03 µg/mL
same,IC50,[12],8.55 µg/mL
same,IC50,[14],9.65 µg/mL
CC1(C)CC[C@]2(C(=O)O)CC[C@]3(C)C(=CC[C@@H]4[C@@]5(C)CCC(=O)C(C)(C)[C@@H]5CC[C@]43C)[C@@H]2C1 [OLEANONIC ACID],IC50,[7],> 20 µg/mL
same,IC50,[8],> 20 µg/mL
same,IC50,[9],> 20 µg/mL
same,IC50,[11],> 20 µg/mL
same,IC50,[12],18 µg/mL
same,IC50,[14],> 20 µg/mL
O=S(=O)(F)Cc1ccccc1 [PHENYLMETHYLSULFONYLFLUORIDE],IC50,[6],19.9 µg/mL
COc1cc2ccc(=O)oc2cc1O [SCOPOLETIN],IC50,[4],> 50 µg/mL
same,IC50,[5],41.7 µg/mL
C[C@H]1[C@H](C)CC[C@]2(C(=O)O)CC[C@]3(C)C(=CC[C@@H]4[C@@]5(C)CC[C@H](O)C(C)(C)[C@@H]5CC[C@]43C)[C@H]12 [URSOLIC ACID],IC50,[1],0.29 µg/mL
same,IC50,[4],> 50 µg/mL
same,IC50,[6],0.31 µg/mL
same,IC50,[5],34.5 µg/mL
